Data taken from the supplement of paper PMC10307832.

Columns and labels:
Experiment in all cases: relative viability (nuclei count vs DMSO), 5 days (fraction); higher = more cells survive
COR-L 105 = tested on: COR-L 105
How it was run: (§1)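 Relative viability was taken as the ratio of nuclei in treated wells to nuclei in vehicle wells. Lung cancer cell lines in 1536-well plates received compounds by pin tool one day after seeding, either one drug alone or a fixed anchor-drug dose plus five library-drug doses (not always all listed) in √10 steps. Nuclei were counted on 4× images after 5 days of treatment, and values are medians of duplicate plates.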

COR-L23 = tested on: COR-L23
How it was run: as §1

HARA = tested on: HARA
How it was run: as §1

HCC-15 = tested on: HCC-15
How it was run: as §1

HOP-62 = tested on: HOP-62
How it was run: as §1

NCI-H1355 = tested on: NCI-H1355
How it was run: as §1

NCI-H1395 = tested on: NCI-H1395
How it was run: as §1

NCI-H1734 = tested on: NCI-H1734
How it was run: as §1

NCI-H1755 = tested on: NCI-H1755
How it was run: as §1

NCI-H1792 = tested on: NCI-H1792
How it was run: as §1

NCI-H1793 = tested on: NCI-H1793
How it was run: as §1

NCI-H1993 = tested on: NCI-H1993
How it was run: as §1

NCI-H2009 = tested on: NCI-H2009
How it was run: as §1

NCI-H2228 = tested on: NCI-H2228
How it was run: as §1

NCI-H2347 = tested on: NCI-H2347
How it was run: as §1

NCI-H358 = tested on: NCI-H358
How it was run: as §1

NCI-H647 = tested on: NCI-H647
How it was run: as §1

NCI-H838 = tested on: NCI-H838
How it was run: as §1

SK-MES-1 = tested on: SK-MES-1
How it was run: as §1

UMC-11 = tested on: UMC-11
How it was run: as §1

## O=c1cc(N2CCOCC2)oc2c(-c3cccc4c3sc3ccccc34)cccc12 + C[C@]1(O)C[C@@H](c2nc(-c3ccc4ccc(-c5ccccc5)nc4c3)c3c(N)nccn32)C1 [Linsitinib] (partner 1 µM)
COR-L 105; first compound 0.01 µM
  relative viability: 0.858
COR-L 105; first compound 0.03162 µM
  relative viability: 0.792
COR-L 105; first compound 0.1 µM
  relative viability: 0.851
COR-L 105; first compound 0.3162 µM
  relative viability: 0.773
COR-L 105; first compound 1 µM
  relative viability: 0.895
COR-L23; first compound 0.01 µM
  relative viability: 0.891
COR-L23; first compound 0.03162 µM
  relative viability: 0.877
COR-L23; first compound 0.1 µM
  relative viability: 1
COR-L23; first compound 0.3162 µM
  relative viability: 0.923
COR-L23; first compound 1 µM
  relative viability: 0.882
HARA; first compound 0.01 µM
  relative viability: 0.996
HARA; first compound 0.03162 µM
  relative viability: 0.933
HARA; first compound 0.1 µM
  relative viability: 1.03
HARA; first compound 0.3162 µM
  relative viability: 1.17
HARA; first compound 1 µM
  relative viability: 0.926
HCC-15; first compound 0.01 µM
  relative viability: 0.786
HCC-15; first compound 0.03162 µM
  relative viability: 0.869
HCC-15; first compound 0.1 µM
  relative viability: 0.936
HCC-15; first compound 0.3162 µM
  relative viability: 0.902
HCC-15; first compound 1 µM
  relative viability: 0.847
HOP-62; first compound 0.01 µM
  relative viability: 0.991
HOP-62; first compound 0.03162 µM
  relative viability: 1.12
HOP-62; first compound 0.1 µM
  relative viability: 0.909
HOP-62; first compound 0.3162 µM
  relative viability: 0.933
HOP-62; first compound 1 µM
  relative viability: 0.989
NCI-H1355; first compound 0.01 µM
  relative viability: 0.772
NCI-H1355; first compound 0.03162 µM
  relative viability: 0.895
NCI-H1355; first compound 0.3162 µM
  relative viability: 0.819
NCI-H1355; first compound 1 µM
  relative viability: 0.849
NCI-H1395; first compound 0.01 µM
  relative viability: 1.21
NCI-H1395; first compound 0.03162 µM
  relative viability: 1.11
NCI-H1395; first compound 0.1 µM
  relative viability: 1.03
NCI-H1395; first compound 0.3162 µM
  relative viability: 1.12
NCI-H1395; first compound 1 µM
  relative viability: 1.2
NCI-H1734; first compound 0.01 µM
  relative viability: 0.963
NCI-H1734; first compound 0.03162 µM
  relative viability: 1.03
NCI-H1734; first compound 0.1 µM
  relative viability: 0.906
NCI-H1734; first compound 0.3162 µM
  relative viability: 0.843
NCI-H1734; first compound 1 µM
  relative viability: 0.89
NCI-H1755; first compound 0.01 µM
  relative viability: 1.04
NCI-H1755; first compound 0.03162 µM
  relative viability: 0.98
NCI-H1755; first compound 0.1 µM
  relative viability: 1.03
NCI-H1755; first compound 0.3162 µM
  relative viability: 1.03
NCI-H1755; first compound 1 µM
  relative viability: 1.01
NCI-H1792; first compound 0.01 µM
  relative viability: 0.514
NCI-H1792; first compound 0.03162 µM
  relative viability: 0.513
NCI-H1792; first compound 0.1 µM
  relative viability: 0.564
NCI-H1792; first compound 0.3162 µM
  relative viability: 0.502
NCI-H1792; first compound 1 µM
  relative viability: 0.574
NCI-H1793; first compound 0.01 µM
  relative viability: 0.809
NCI-H1793; first compound 0.03162 µM
  relative viability: 0.872
NCI-H1793; first compound 0.1 µM
  relative viability: 0.517
NCI-H1793; first compound 0.3162 µM
  relative viability: 0.813
NCI-H1793; first compound 1 µM
  relative viability: 0.68
NCI-H1993; first compound 0.01 µM
  relative viability: 0.73
NCI-H1993; first compound 0.03162 µM
  relative viability: 0.785
NCI-H1993; first compound 0.1 µM
  relative viability: 0.687
NCI-H1993; first compound 0.3162 µM
  relative viability: 0.79
NCI-H1993; first compound 1 µM
  relative viability: 0.531
NCI-H2009; first compound 0.01 µM
  relative viability: 1.16
NCI-H2009; first compound 0.03162 µM
  relative viability: 1.17
NCI-H2009; first compound 0.1 µM
  relative viability: 1.19
NCI-H2009; first compound 0.3162 µM
  relative viability: 1.17
NCI-H2009; first compound 1 µM
  relative viability: 1.05
NCI-H2228; first compound 0.03162 µM
  relative viability: 0.571
NCI-H2228; first compound 0.1 µM
  relative viability: 0.539
NCI-H2228; first compound 0.3162 µM
  relative viability: 0.904
NCI-H2228; first compound 1 µM
  relative viability: 0.74
NCI-H2347; first compound 0.01 µM
  relative viability: 1.02
NCI-H2347; first compound 0.03162 µM
  relative viability: 0.943
NCI-H2347; first compound 0.1 µM
  relative viability: 0.962
NCI-H2347; first compound 0.3162 µM
  relative viability: 0.926
NCI-H2347; first compound 1 µM
  relative viability: 0.945
NCI-H358; first compound 0.01 µM
  relative viability: 0.631
NCI-H358; first compound 0.03162 µM
  relative viability: 0.781
NCI-H358; first compound 0.1 µM
  relative viability: 0.731
NCI-H358; first compound 0.3162 µM
  relative viability: 0.812
NCI-H358; first compound 1 µM
  relative viability: 0.736
NCI-H647; first compound 0.01 µM
  relative viability: 1.02
NCI-H647; first compound 0.03162 µM
  relative viability: 1.24
NCI-H647; first compound 0.1 µM
  relative viability: 1.22
NCI-H647; first compound 0.3162 µM
  relative viability: 1.09
NCI-H647; first compound 1 µM
  relative viability: 0.954
NCI-H838; first compound 0.01 µM
  relative viability: 1.05
NCI-H838; first compound 0.03162 µM
  relative viability: 1.03
NCI-H838; first compound 0.1 µM
  relative viability: 0.951
NCI-H838; first compound 0.3162 µM
  relative viability: 0.931
NCI-H838; first compound 1 µM
  relative viability: 0.916
SK-MES-1; first compound 0.01 µM
  relative viability: 1.17
SK-MES-1; first compound 0.03162 µM
  relative viability: 1.02
SK-MES-1; first compound 0.1 µM
  relative viability: 1.05
SK-MES-1; first compound 0.3162 µM
  relative viability: 1.09
SK-MES-1; first compound 1 µM
  relative viability: 1.01
UMC-11; first compound 0.01 µM
  relative viability: 1.07
UMC-11; first compound 0.03162 µM
  relative viability: 1.03
UMC-11; first compound 0.1 µM
  relative viability: 1.01
UMC-11; first compound 0.3162 µM
  relative viability: 1.02
UMC-11; first compound 1 µM
  relative viability: 1.06
